Experimental data from the supplement of paper PMC10307832.

Legend:
Assay in all cases: relative viability (nuclei count vs DMSO), 5 days (fraction); higher = more cells survive
IPA-3 + Linsitinib = compound: C1=CC=C2C(=C1)C=CC(=C2SSC3=C(C=CC4=CC=CC=C43)O)O [IPA-3] + C[C@]1(O)C[C@@H](c2nc(-c3ccc4ccc(-c5ccccc5)nc4c3)c3c(N)nccn32)C1 [Linsitinib] (partner 1 µM)
Outline: (§1)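 Relative viability equals treated-well nuclei counts divided by vehicle-well nuclei counts. Counts came from 4× images of lung cancer cell lines grown in 1536-well plates for 5 days after pin-tool dosing on the day after seeding. Dosing used one drug alone or a fixed anchor-drug dose plus five library-drug doses (not always all listed) in √10 steps, and values are medians of duplicate plates.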

Doramapimod + Foretinib = compound: Cc1ccc(-n2nc(C(C)(C)C)cc2NC(=O)Nc2ccc(OCCN3CCOCC3)c3ccccc23)cc1 [Doramapimod] + COc1cc2c(Oc3ccc(NC(=O)C4(C(=O)Nc5ccc(F)cc5)CC4)cc3F)ccnc2cc1OCCCN1CCOCC1 [Foretinib] (partner 0.25 µM)
Outline: as §1

Doramapimod + Decitabine = compound: Cc1ccc(-n2nc(C(C)(C)C)cc2NC(=O)Nc2ccc(OCCN3CCOCC3)c3ccccc23)cc1 [Doramapimod] + Nc1ncn([C@H]2C[C@H](O)[C@@H](CO)O2)c(=O)n1 [Decitabine] (partner 2 µM)
Outline: as §1

RAF265 + Alpelisib = compound: Cn1c(Nc2ccc(C(F)(F)F)cc2)nc2cc(Oc3ccnc(-c4ncc(C(F)(F)F)[nH]4)c3)ccc21 [RAF265] + Cc1nc(NC(=O)N2CCC[C@H]2C(N)=O)sc1-c1ccnc(C(C)(C)C(F)(F)F)c1 [Alpelisib] (partner 2 µM)
Outline: as §1

Row | Cell Line | relative viability (IPA-3 + Linsitinib; first compound 0.2 µM) | relative viability (IPA-3 + Linsitinib; first compound 0.6325 µM) | relative viability (IPA-3 + Linsitinib; first compound 2 µM) | relative viability (IPA-3 + Linsitinib; first compound 6.325 µM) | relative viability (IPA-3 + Linsitinib; first compound 20 µM) | relative viability (Doramapimod + Foretinib; first compound 0.02 µM) | relative viability (Doramapimod + Foretinib; first compound 0.06325 µM) | relative viability (Doramapimod + Foretinib; first compound 0.2 µM) | relative viability (Doramapimod + Foretinib; first compound 0.6325 µM) | relative viability (Doramapimod + Foretinib; first compound 2 µM) | relative viability (Doramapimod + Decitabine; first compound 0.02 µM) | relative viability (Doramapimod + Decitabine; first compound 0.06325 µM) | relative viability (Doramapimod + Decitabine; first compound 0.2 µM) | relative viability (Doramapimod + Decitabine; first compound 0.6325 µM) | relative viability (Doramapimod + Decitabine; first compound 2 µM) | relative viability (RAF265 + Alpelisib; first compound 0.01 µM) | relative viability (RAF265 + Alpelisib; first compound 0.1 µM) | relative viability (RAF265 + Alpelisib; first compound 0.3162 µM) | relative viability (RAF265 + Alpelisib; first compound 1 µM) | relative viability (RAF265 + Alpelisib; first compound 0.03162 µM)
1 | HOP-62 | 0.903 | 1.07 | 0.754 | 1.05 | 1.2 | 1.15 | 1.05 | 1.11 | 1.14 | 1.08 | 0.267 | 0.268 | 0.176 | 0.208 | 0.211 | 0.966 | 0.948 | 1.07 | 0.58 | –
2 | HCC-366 | 0.996 | 0.627 | 0.723 | 0.756 | 0.696 | 0.617 | 0.874 | 0.899 | 0.876 | 0.821 | 0.373 | 0.276 | 0.315 | 0.37 | 0.28 | 0.404 | 0.539 | 0.579 | 0.124 | 0.432
3 | NCI-H2347 | 1.02 | 0.903 | 0.879 | 0.947 | 0.972 | – | 1.03 | 1.1 | 0.861 | 1.11 | 0.671 | 0.604 | 0.626 | 0.656 | 0.634 | 1.18 | 0.933 | 0.612 | 0.488 | 0.97
4 | A549 | 0.653 | 0.582 | 0.683 | 0.591 | 0.775 | 0.91 | 1 | 0.992 | 1.06 | 0.875 | 0.235 | 0.309 | 0.312 | 0.175 | 0.278 | 0.761 | 0.541 | 0.244 | 0.178 | 0.612
5 | LXF-289 | 1.09 | 0.961 | 0.951 | 1.02 | 1.11 | 0.955 | 1.04 | 0.999 | 0.955 | 0.928 | 0.374 | 0.393 | 0.354 | 0.373 | 0.351 | 1.06 | 1 | 0.79 | 0.75 | 0.965
6 | NCI-H1793 | 1.24 | 0.794 | 0.977 | 1.06 | 1.15 | 0.618 | 0.752 | 0.822 | 0.865 | 0.597 | 0.523 | 0.449 | 0.526 | 0.483 | 0.392 | 0.709 | 0.66 | 0.477 | 0.293 | 0.914
7 | LU99A | 0.563 | 0.476 | 0.553 | 0.517 | 0.547 | 0.791 | 0.781 | 0.914 | 0.801 | 0.724 | 0.905 | 0.948 | 0.754 | 0.97 | 0.759 | 0.474 | 0.347 | 0.252 | 0.21 | 0.384
8 | PC-14 | 0.945 | 0.96 | 1.01 | 0.922 | 1.09 | 0.939 | 1.03 | 0.997 | 1.13 | 0.91 | 0.261 | 0.22 | 0.215 | 0.277 | 0.197 | 0.964 | 0.854 | 0.35 | 0.579 | 0.907
9 | NCI-H2085 | 0.923 | 0.954 | 0.856 | 0.992 | 1.21 | 1.03 | 0.85 | 0.707 | 1.21 | 1.03 | 0.612 | 0.526 | 0.563 | 0.584 | 0.56 | 1 | 0.85 | 1.03 | 0.891 | 0.961
10 | HCC-78 | 0.569 | 0.597 | 0.454 | 0.583 | 0.635 | 0.542 | 0.575 | 0.54 | 0.545 | 0.539 | 0.753 | 0.794 | 0.635 | 0.609 | 0.624 | 0.33 | 0.432 | 0.291 | 0.249 | 0.358
11 | NCI-H1395 | 1.2 | 1.04 | 1.19 | 1.02 | 1.11 | 0.948 | 0.925 | 0.991 | 0.991 | 0.933 | 0.745 | 0.722 | 0.71 | 0.682 | 0.64 | 1.07 | 1.04 | 0.835 | 0.792 | 0.993
12 | NCI-H2126 | 0.74 | 0.659 | 0.7 | 0.768 | 0.812 | 1.21 | 0.988 | 1.14 | 1.34 | 1.2 | 0.561 | 0.57 | 0.543 | 0.614 | 0.55 | 0.75 | 0.731 | 0.663 | 0.519 | 0.751
13 | H3255 | 1.09 | 0.874 | 0.932 | 0.963 | 1.11 | 0.844 | 0.883 | 0.945 | 0.637 | 0.726 | 0.688 | 0.581 | 0.767 | – | 0.569 | 0.706 | 0.691 | – | 0.455 | 0.836
14 | HCC-15 | 0.934 | 0.81 | 0.951 | 0.888 | 0.918 | 1.07 | 1.01 | 0.964 | – | 0.953 | 0.64 | 0.621 | 0.63 | 0.645 | 0.681 | 0.949 | 0.844 | 0.544 | 0.439 | 0.776
15 | NCI-H661 | 0.52 | 0.466 | 0.712 | 0.598 | 0.646 | 1.05 | 1 | 1.02 | 1.04 | 0.989 | 0.563 | 0.564 | 0.63 | 0.631 | 0.492 | 0.865 | 0.563 | 0.47 | 0.241 | 0.586
16 | NCI-H2009 | 1.26 | 1.17 | 1.24 | 1.13 | 1.18 | 1.21 | 1.25 | 1.21 | 1.36 | 1.2 | 0.35 | 0.408 | 0.45 | 0.384 | 0.329 | 1.21 | 1.03 | 1.05 | 0.594 | 1.11
17 | COR-L23 | 1.13 | 0.837 | 0.92 | 0.797 | 0.819 | 0.945 | 0.926 | 0.966 | 1.01 | 0.855 | 0.409 | 0.412 | 0.507 | 0.432 | 0.41 | 0.785 | 0.669 | 0.389 | 0.304 | 0.696
18 | EMC-BAC-2 | 0.855 | 0.808 | 0.884 | 0.804 | 0.907 | 0.999 | 1.02 | 1.09 | 1.23 | 1 | 1 | 0.905 | 0.99 | 0.955 | 0.858 | 0.735 | 0.692 | 0.52 | 0.263 | 0.682
19 | LCLC-103H | 1.1 | 1.07 | 1.01 | 1.1 | 1.16 | 0.627 | 0.691 | 0.598 | 0.857 | 0.73 | 0.714 | 0.704 | 0.719 | 0.742 | 0.654 | 0.862 | 0.854 | 0.745 | 0.461 | 1.02
20 | LK-2 | 0.553 | 0.436 | 0.595 | 0.526 | 0.518 | 1.04 | 1.04 | 0.919 | 1.05 | 0.925 | 0.294 | 0.288 | 0.25 | 0.232 | 0.266 | 1.07 | 1.18 | 0.655 | 0.778 | 1.08
21 | SW 1573 | 1.07 | 0.921 | 0.682 | 0.833 | 0.843 | 0.862 | 0.769 | 0.749 | 0.836 | 0.663 | 0.506 | 0.388 | 0.615 | 0.575 | 0.366 | 1 | 0.645 | 0.574 | 0.343 | 0.638
22 | NCI-H2405 | 0.953 | 0.923 | 0.936 | 0.912 | 1.03 | 1.11 | 1.01 | 1.04 | 1.14 | 0.998 | 0.758 | 0.713 | 0.703 | 0.861 | 0.685 | 0.808 | 0.863 | 0.712 | 0.297 | 0.858
23 | NCI-H2087 | 1.1 | 1.05 | 0.925 | 0.86 | 0.995 | 0.996 | 1.14 | 0.993 | 1.18 | 1.24 | 0.286 | 0.206 | 0.277 | 0.232 | 0.201 | 0.861 | 0.909 | 0.709 | 0.677 | 0.89
24 | NCI-H460 | 1.69 | 0.603 | 0.968 | 0.711 | 0.771 | 1.08 | 1.04 | 1.02 | 1.17 | 0.973 | 0.499 | 0.434 | 0.487 | 0.553 | 0.46 | 0.543 | 0.481 | – | 0.173 | 0.356
25 | LOU-NH91 | 0.985 | 0.92 | 0.979 | 0.99 | 1.14 | 1.01 | 0.938 | 1.02 | 1.07 | 0.681 | 0.858 | 0.806 | 0.84 | 0.849 | 0.711 | 0.747 | 0.739 | 0.557 | 0.495 | 0.667
26 | NCI-H1651 | 1.1 | – | 1.07 | 1.04 | 1.05 | 0.912 | 0.777 | 0.841 | 0.793 | 0.869 | 0.632 | 0.678 | 0.608 | 0.569 | 0.608 | 0.95 | 1.03 | 0.734 | 0.774 | 0.919
27 | NCI-H441 | 0.568 | 0.568 | 0.611 | 0.541 | 0.515 | 1.02 | 0.654 | 0.909 | – | 0.842 | 0.238 | 0.216 | 0.268 | 0.238 | 0.194 | 0.793 | 0.429 | 0.392 | 0.311 | –
